Where “and” joins values, the source holds several entries; their conditions need not be identical. Equal entries are not always repeated. Where two headings read alike, the source gives them in different places.
Legend:
[1] = molecular target: T1, β-glucuronidase (Homo sapiens, UniProt P08236); assay: Standard Test: β-glucuronidase activity of human breast milk with MUG substrate (fluorescence); type: biochemical; conditions: Example 3; for mean (X̄) activity: mean of 3; for Activity (pmole/tube/hr): single replicates
T1 construct: We used human breast milk collected and pooled from a newborn nursery as the β-glucuronidase source; from tissue
T1 sequence (P08236 23-651): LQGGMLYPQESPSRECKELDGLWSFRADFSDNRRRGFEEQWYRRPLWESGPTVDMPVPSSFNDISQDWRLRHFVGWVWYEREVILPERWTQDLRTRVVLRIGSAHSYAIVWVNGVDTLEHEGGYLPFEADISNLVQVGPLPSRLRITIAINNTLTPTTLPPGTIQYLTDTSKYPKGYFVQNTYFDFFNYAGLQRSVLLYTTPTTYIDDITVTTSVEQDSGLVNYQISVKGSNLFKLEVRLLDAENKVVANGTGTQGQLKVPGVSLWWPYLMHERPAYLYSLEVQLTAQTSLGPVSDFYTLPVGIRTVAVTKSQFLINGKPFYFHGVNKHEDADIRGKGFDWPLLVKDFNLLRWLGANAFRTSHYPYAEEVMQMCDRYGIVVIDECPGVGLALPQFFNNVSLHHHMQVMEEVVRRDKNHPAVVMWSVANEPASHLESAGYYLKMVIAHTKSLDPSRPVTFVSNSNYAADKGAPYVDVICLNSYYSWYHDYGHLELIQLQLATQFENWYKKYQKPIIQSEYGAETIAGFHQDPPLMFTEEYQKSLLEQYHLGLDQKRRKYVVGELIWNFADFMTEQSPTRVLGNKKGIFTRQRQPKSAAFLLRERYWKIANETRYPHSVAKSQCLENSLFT
Procedure: We first developed a standard assay procedure (the “Standard Test”). We used human breast milk collected and pooled from a newborn nursery as the β-glucuronidase source. The samples were stored at −20° C. The milk was thawed and diluted 10× with 0.2 M sodium acetate/glacial acetic acid (NaAC) buffer pH 4.5 just prior to being used. A 4.0 mM stock solution of 4-methylumbelliferyl β-D-glucuronide (MUG, Sigma M-9130 lot#75H3777) was prepared in 0.2 M NaAC buffer pH 4.5.
Triplicate test and blank tubes contained a reaction mixture consisting of 50 μL diluted breast milk and 50 μL of an inhibitor solution diluted with 0.2 M NaAC buffer pH 4.5. Controls were prepared that contained only 50 μL diluted breast milk and 50 μL 0.2 M NaAC buffer pH 4.5. The assay was started by adding 25 μl of the MUG (4.0 mM, 0.800 mM final concentration) to the test sample to start the reaction. The final volume of the reaction was 125 μL. Both blank and test samples were vortexed and incubated at 37° C. for 1 hour (or for shorter times if indicated).
The reaction was quenched in both the test and blank samples with 3.0 ml of glycine-carbonate (320 mM: 200 mM) buffer pH 10.0. The blank samples had 25 μl of the MUG (4.0 mM, 0.800 mM final) added to them and all tubes were vortexed.
The resulting fluorescence was read using a Perkin Elmer LS5-B fluorescence spectrophotometer (360 nm excitation, 445 nm emission, autorange scale). The amount of 4-methylumbelliferone (4-MU) released by the β-glucuronidase was calculated using a 4-MU quadratic standard curve and the Mathplot software. The velocity was calculated as pmoles of 4-MU formed per hour per ml undiluted breast milk.
We diluted pooled breast milk 20× with 0.2 M NaAC buffer pH 4.5. We diluted 2.2% w/v solution of Amicase (Sigma Cat. #A2427—a mixture of free amino acids with virtually no unhydrolyzed peptides, only minimal inorganic components are present, total nitrogen ˜12.8%, amino nitrogen ˜9.8%) with buffer 5×. We then incubated 50 μl milk with 50 μl buffer and Amicase. We then added 25 μl MUG to start the reaction. We then quenched with Na-carbonate buffer pH 10.0 and read fluorescence at 360 nm ex 445 nm em. Autorange scale. The mixture of amino acids was compared to controls and Nutramigen® as follows:
We then studied the effect of specific amino acid mixtures on β-glucuronidase activity. We diluted pooled breast milk 10× with 0.2 M NaAC buffer pH 4.5 and diluted 50×stock essential amino acid solution (Sigma Cat #M7020=L-arginine.HCl 6.32 g/L, L-cystine 1.2 g/L, L-histidine.HCl.H20 2.1 g/L, L-isoleucine 2.625 g/L, L-leucine 2.62 g/L, L-lyscine.HCl 3.625 g/L, L-methionine 0.755 g/L, L-phenylalanine 1.65 g/L, L-threonine 2.38 g/L, L-tryptophane 0.51 g/L, L-tyrosine 1.8 g/L, L-valine 2.34 g/L).
We also used a non-essential AA solution=Sigma Cat #M7145=L-alanine HCl 0.89 g/L, L-asparagine.H20 1.50 g/L, L-aspartic acid 1.33 g/L, L-glutamic acid 1.47 g/L, glycine 0.75 g/L, L-proline 1.15 g/L, L-serine 1.05 g/L.
We 5×diluted 100×stock essential AA solution. We incubated 50 μl diluted milk with 50 μl buffer (control), or the essential AA solution, or the non-essential AA solution, or Nutramigen® RTU, added 25 μl MUG to start the reaction, quenched with Na-carbonate buffer, and read fluorescence (360 nm excitation: 445 nm emission). The results are as follows:
We then analyzed inhibitory effect of each of the seven amino acids in the non-essential amino acid mixture. We diluted pooled breast milk 10× with 0.2 M NaAC buffer pH 4.5, and diluted Nutramigen® RTU (N) and Nutramigen® lipid-free supernatant (LFS) 5 fold with 0.2 M NaAC buffer pH 4.5.
We prepared stock solutions of each of the non-essential amino acids L-alanine (Ala), L-asparagine (Asn), L-aspartic acid (Asp), L-glutamic acid (Glu), glycine (Gly), L-proline (Pro), and L-Serine (Ser). All solutions were at pH 4.5. The final concentration of each amino acid in the assay was the same as when the amino acids were analyzed as a mixture. […]

[2] = cited from earlier work

In the case of `O=C(O)[C@@H]1CCCN1` [Pro, L-proline], the remaining activity at 46 µg/mL ([1]; 46.0 μg/ml, read-out: % (activity relative to control)) is reported as 99.3%, the “mean (X̄) activity” value ([1]; 46.0 μg/ml) is reported as 669.6 pmole/tube/hr and the “Activity (pmole/tube/hr)” value ([1]; 46.0 μg/ml) is reported as 666.1 pmole/tube/hr and 679.7 pmole/tube/hr and 662.9 pmole/tube/hr.
For `N[C@@H](CO)C(=O)O` [Ser, L-Serine], the remaining activity at 42.2 µg/mL ([1]; 42.2 μg/ml, read-out: % (activity relative to control)) was 99.3%, the “mean (X̄) activity” value ([1]; 42.2 μg/ml) was 669.2 pmole/tube/hr and the “Activity (pmole/tube/hr)” value ([1]; 42.2 μg/ml) was 677.7 pmole/tube/hr and 670.6 pmole/tube/hr and 659.2 pmole/tube/hr.
For `N[C@@H](CC(=O)O)C(=O)O` [aspartic acid], the serum bilirubin level ([2]; a premature infant with neonatal hyperbilirubinemia, Kohno et al. 1963) is given as “lowered”, the “effect on serum bilirubin concentrations” value ([2]; double-blind, pre-term formula-fed infants, given each of the first six days of life, Gray et al. 1971) is given as “no effect” and the serum bilirubin level ([2]; some cases of hyperbilirubinemia, Saito et al. 1964) is given as “decreased”.

Reference: patent US6416783B1, “Aspartic and malic acid inhibition of ss-glucuronidase” (Wisconsin Alumni Research Foundation, priority 1999, dated 2002)
